In patent US20260042764A1, “COMPOSITIONS AND METHODS FOR INHIBITION OF KRAS” (TheRas, Inc., priority 2022, published 2026):

What was measured:
[1] = molecular target: T1, Avi-KRAS WT (1-169) GppNHp/RAF1 RBD-3xFLAG (52-151) (Homo sapiens, UniProt P01116); experiment: Raf1-KRAS WT-GppNHP disruption HTRF assay (Biological Example 1); format: binding
T1 construct: Avi-KRAS WT (1-169)
How it was run: (§1)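 Using HTRF, the loss of KRAS–effector RAF1 complex was quantified in 50 mM Tris pH 7.5 buffer with 100 mM NaCl and 0.1% BSA. The protein step and reagent step ran 1 h each at room temperature. Activity normalized with DMSO taken as 100%.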

[2] = test system: GP2d cells (KRAS G12D); experiment: Cell-based pERK HTRF assay in GP2d cell (Biological Example 2); conditions: GP2d, GP2d (KRAS G12D) cells, pERK HTRF
How it was run: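 Cells grown in DMEM with 10% FBS were exposed to compound for 60 min at 0.25% DMSO, using a 9-point half-log series starting at 1 μM or 100 nM. Lysates were then mixed with d2 and Eu cryptate antibodies for 4–24 h at room temperature, and pERK was read by HTRF.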

[3] = molecular target: T2, Avi-KRAS G12R (1-169) GppNHp/RAF1 RBD-3xFLAG (52-151) (Homo sapiens, UniProt P01116, G12R); experiment: Raf1-KRAS G12R-GppNHP disruption HTRF assay (Biological Example 1); format: binding
T2 construct: Avi-KRAS G12R (1-169)
How it was run: as §1

[4] = molecular target: T3, Avi-KRAS G12V (1-169) GppNHp/RAF1 RBD-3xFLAG (52-151) (Homo sapiens, UniProt P01116, G12V); experiment: Raf1-KRAS G12V-GppNHP disruption HTRF assay (Biological Example 1); format: binding
T3 construct: Avi-KRAS G12V (1-169)
How it was run: as §1

[5] = molecular target: T4, Avi-KRAS G12D (1-169) GppNHp/RAF1 RBD-3xFLAG (52-151) (Homo sapiens, UniProt P01116, G12D); experiment: Raf1-KRAS G12D-GppNHP disruption HTRF assay (Biological Example 1); format: binding
T4 construct: Avi-KRAS G12D (1-169)
How it was run: as §1

[6] = test system: SW620 cells (KRAS G12V); experiment: Cell-based pERK HTRF assay in SW620 cell (Biological Example 4); conditions: Homo sapiens, SW-620, SW620 (KRAS G12V) cells, pERK HTRF
Method: A pERK assay (Perkin Elmer) was used to determine the effectiveness of compounds in disrupting KRAS G12V protein/effector signaling in cells.
On Day 1, cells (SW620) were seeded into 96-well plates at 3×10^4 cells/well in 80 μL complete growth media (RPMI, 10% FBS).
On Day 2, cells were treated with compounds at 0.25% DMSO. The source plate was created with compounds diluted in media at 5-fold the final assay concentration. The compounds were run in a 9-point concentration curve starting at 1 μM, with a half-log dilution between concentrations. Twenty μL was transferred onto the cell plates (final volume in wells was 100 μL). Plates were harvested after 4 h incubation by aspirating media and adding kit-supplied 1x supplemented lysis buffer to all wells (50 μL per well). Plates were then placed on a plate shaker and incubated at 850 rpm for an additional 30 min.
Antibody mixture solution was prepared by diluting aliquoted d2 and Eu Cryptate antibodies 1:20 in kit supplied detection buffer and mixing the diluted antibodies solutions (1:1 v:v).
Samples were homogenized by pipetting up and down and then transferred (16 μL of cell lysates) from the 96-well cell culture plate to two wells of the HTRF 384-well detection plate containing the antibody solution. Plates were centrifuged (524 g for Imin) and allowed to incubate between 4 and 24 h at room temperature. […] Plates were centrifuged again (524 g for 1 min), then analyzed on the En Vision plate reader using the following settings: Excitation 320 nm, Bandwidth 75 nm; Emission 615 nm, Bandwidth 85 nm; Gain 100%; Flashes 100; Lag 60 μs.

[7] = KRAS WT, GppNHp-loaded, class symbols
[8] = KRAS G12R, GppNHp-loaded, class symbols
[9] = KRAS G12V, GppNHp-loaded, class symbols
[10] = KRAS G12D, GppNHp-loaded, class symbols

T1 sequence (P01116 1-169 isoform P01116-2): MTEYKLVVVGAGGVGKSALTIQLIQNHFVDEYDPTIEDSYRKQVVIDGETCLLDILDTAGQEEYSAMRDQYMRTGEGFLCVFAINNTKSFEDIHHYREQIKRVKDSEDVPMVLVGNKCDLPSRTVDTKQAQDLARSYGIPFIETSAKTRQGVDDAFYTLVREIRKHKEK
T3 sequence (P01116 1-169 isoform P01116-2 G12V): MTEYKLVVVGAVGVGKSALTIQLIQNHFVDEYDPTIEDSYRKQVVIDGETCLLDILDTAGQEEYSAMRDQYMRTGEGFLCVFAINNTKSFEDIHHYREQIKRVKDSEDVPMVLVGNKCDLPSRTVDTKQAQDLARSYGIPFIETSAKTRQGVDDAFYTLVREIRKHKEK
T2 sequence (P01116 1-169 isoform P01116-2 G12R): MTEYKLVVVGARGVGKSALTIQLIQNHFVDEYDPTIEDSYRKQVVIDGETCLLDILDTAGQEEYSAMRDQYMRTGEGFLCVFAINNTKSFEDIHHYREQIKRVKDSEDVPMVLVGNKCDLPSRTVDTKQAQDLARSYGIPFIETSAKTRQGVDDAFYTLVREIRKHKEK
T4 sequence (P01116 1-169 isoform P01116-2 G12D): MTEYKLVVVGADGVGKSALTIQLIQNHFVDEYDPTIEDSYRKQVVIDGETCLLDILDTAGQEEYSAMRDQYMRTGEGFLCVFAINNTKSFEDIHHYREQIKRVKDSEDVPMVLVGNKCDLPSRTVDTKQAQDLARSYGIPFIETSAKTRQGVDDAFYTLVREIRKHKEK

| IC50 ([1]; KRAS WT-GppNHp/RAF1 RBD HTRF) [nM] | IC50 [2] [nM] | IC50 ([3]; KRAS G12R-GppNHp/RAF1 RBD HTRF) [nM] | IC50 ([4]; KRAS G12V-GppNHp/RAF1 RBD HTRF) [nM] | IC50 ([5]; KRAS G12D-GppNHp/RAF1 RBD HTRF) [nM] | IC50 [6] [nM] | IC50 [1, 7] [nM] | IC50 ([2]; class symbols) [nM] | IC50 [3, 8] [nM] | IC50 [4, 9] [nM] | IC50 [5, 10] [nM] | IC50 ([6]; class symbols) [nM] | SMILES |
| --- | --- | --- | --- | --- | --- | --- | --- | --- | --- | --- | --- | --- |
|  |  |  |  |  |  | < 100 | < 100 | < 100 | < 100 | < 100 | < 100 | CCN(c1nc(OC[C@@]23CCCN2C[C@H](F)C3)nc2c(F)c(-c3ccc(F)c4sc(N)c(C#N)c34)c(C(F)(F)F)cc12)[C@H]1CCN(C(=O)N2CC(OC)C2)[C@@H]1C (atropisomer, axis not shown) [Compound 761] |
|  |  |  |  |  |  | < 100 | < 100 | < 100 | < 100 | < 100 | < 100 | CCN1C[C@@H]2C[C@H](N(CC)c3nc(OC[C@@]45CCCN4C[C@H](F)C5)nc4c(F)c(-c5ccc(F)c6sc(N)c(C#N)c56)c(C(F)(F)F)cc34)CN2C1=O (atropisomer, axis not shown) [Compound 762] |
|  |  |  |  |  |  | < 100 | < 100 | < 100 | < 100 | < 100 | < 100 | CCN(c1nc(OC[C@@]23CCCN2C[C@H](F)C3)nc2c(F)c(-c3ccc(F)c4sc(N)c(C#N)c34)c(C(F)(F)F)cc12)[C@H]1CCN(C(=O)[C@H](C)CO)C1 (atropisomer, axis not shown) [Compound 746] |
|  |  |  |  |  |  | < 100 | < 100 | < 100 | < 100 | < 100 | < 100 | CCN(c1nc(OCC23CCCN2CC(F)C3)nc2c(F)c(-c3ccc(F)c4sc(N)c(C#N)c34)c(C(F)(F)F)cc12)C1CCN(C(=O)c2ccccn2)C1 (stereo not drawn) [Compound 737] |

Second part, the molecule before the results:

| SMILES | IC50 ([1]; KRAS WT-GppNHp/RAF1 RBD HTRF) [nM] | IC50 [2] [nM] | IC50 ([3]; KRAS G12R-GppNHp/RAF1 RBD HTRF) [nM] | IC50 ([4]; KRAS G12V-GppNHp/RAF1 RBD HTRF) [nM] | IC50 ([5]; KRAS G12D-GppNHp/RAF1 RBD HTRF) [nM] | IC50 [6] [nM] | IC50 [1, 7] [nM] | IC50 ([2]; class symbols) [nM] | IC50 [3, 8] [nM] | IC50 [4, 9] [nM] | IC50 [5, 10] [nM] | IC50 ([6]; class symbols) [nM] |
| --- | --- | --- | --- | --- | --- | --- | --- | --- | --- | --- | --- | --- |
| C[C@H]1N(C(=O)C2CC2)CC[C@@]1(C)N(C)c1nc(OC[C@@]23CCCN2C[C@H](F)C3)nc2c(F)c(-c3ccc(F)c4sc(N)c(C#N)c34)c(C(F)(F)F)cc12 [Compound 344] | 100 to 1000 | < 100 | > 10000 | 1000 to 10000 | 1000 to 10000 | 100 to 1000 |  |  |  |  |  |  |
| N#Cc1c(N)sc2c(F)ccc(-c3c(C(F)(F)F)cc4c(N5C[C@H]6C[C@@H](O)[C@@H]5C6)nc(OC[C@@]56CCCN5C[C@H](F)C6)nc4c3F)c12 [Compound 362] | 100 to 1000 | < 100 | 100 to 1000 | 1000 to 10000 | 100 to 1000 | 100 to 1000 |  |  |  |  |  |  |
| CCN(c1nc(OC[C@@]23CCCN2C[C@H](F)C3)nc2c(F)c(-c3ccc(F)c4sc(N)c(C#N)c34)c(C(F)(F)F)cc12)[C@H]1CCN(C(C)=O)[C@@H]1C (atropisomer, axis not shown) [Compound 591] |  |  |  |  |  |  | < 100 | < 100 | < 100 | < 100 | < 100 | < 100 |
| CCN(c1nc(OC[C@@]23CCCN2C[C@H](F)C3)nc2c(F)c(-c3ccc(F)c4sc(N)c(C#N)c34)c(C(F)(F)F)cc12)[C@@H]1CCN(C(=O)N(C)C)[C@@H]1C [Compound 488] | 100 to 1000 | < 100 | < 100 | 100 to 1000 | < 100 | < 100 |  |  |  |  |  |  |
| CCN(c1nc(OC[C@@]23CCCN2C[C@H](F)C3)nc2c(F)c(-c3ccc(F)c4sc(N)c(C#N)c34)c(C(F)(F)F)cc12)[C@H]1C[C@H](COC)N(C(C)=O)C1 (atropisomer, axis not shown) [Compound 647] |  |  |  |  |  |  | 100 to 1000 | < 100 | 100 to 1000 | < 100 | < 100 | < 100 |
| CN(C)C(=O)c1nn2c(c1C(F)(F)F)CN(c1nc(OC[C@@]34CCCN3C[C@H](F)C4)nc3c(F)c(-c4ccc(F)c5sc(N)c(C#N)c45)c(C(F)(F)F)cc13)CC2 (atropisomer, axis not shown) [Compound 596] |  |  |  |  |  |  | 100 to 1000 | < 100 | 100 to 1000 | 100 to 1000 | < 100 | < 100 |
